Reference: US20110282056A1, “PROTEIN KINASE INHIBITORS AND USE THEREOF” (priority 2008, published 2011)
pIC50: −log10 of the molar value.

Tests used:
Assay type in all cases: biochemical
[1] = molecular target: T1, VEGFR3 (Homo sapiens, UniProt P35916); test: VEGFR3 enzyme activity assay (Caliper LC3000 mobility shift); details: 400 uM ATP (Km), 0.4 nM VEGFR3, 90 minutes at RT
T1 construct: purchased Millpore Corp. (Millipore) 14-681
Method: (§1) Enzyme activity for VEGFR3, VEGFR2 and Flt3 were measured on the Caliper Life Sciences LC3000 (Hopkinton, Mass.). The system utilizes the principle of electroosmotic flow to separate and quantify the amount of phosphorylated-Fluorescein-labelled-peptide (product) from unphosphorylated-Fluorescein-labelled peptide (substrate). The amount of product and substrate are determined by measuring the peak heights from the electropherogram. The enzyme activity is then quantified by dividing the amount of product by the sum of the product and substrate. The inhibitory activity of a sample is measured by comparing the enzyme activity in the presence of sample versus the enzyme activity in the presence of dimethylsufoxide (DMSO). Specific assay conditions for each enzyme are listed below:
(§2) VEGFR3 assay: The peptide substrate at 1 uM (FITC-KKKKEEIYFFF-CONH2; synthesized at Tufts University, Boston, Mass.) was incubated with 400 uM of ATP, corresponding to the Michaelis-Menten (Km) constant of the enzyme/substrate reaction, and 0.4 nM of VEGFR3 (Millpore Corp., Cat. No. 14-681) for 90 minutes at RT. After 90 minutes, the reaction was stopped by the addition of 10 mM EDTA. The substrate and product were then separated on the LC3000.

[2] = molecular target: T2, Flt3 (Homo sapiens, UniProt P36888); test: Flt3 enzyme activity assay (Caliper LC3000 mobility shift); details: 350 uM ATP (Km), 3 nM Flt3, 90 minutes at RT
T2 construct: purchased BPS Bioscience; San Diego, Calif; 40225
T2 sequence (P36888 27-993): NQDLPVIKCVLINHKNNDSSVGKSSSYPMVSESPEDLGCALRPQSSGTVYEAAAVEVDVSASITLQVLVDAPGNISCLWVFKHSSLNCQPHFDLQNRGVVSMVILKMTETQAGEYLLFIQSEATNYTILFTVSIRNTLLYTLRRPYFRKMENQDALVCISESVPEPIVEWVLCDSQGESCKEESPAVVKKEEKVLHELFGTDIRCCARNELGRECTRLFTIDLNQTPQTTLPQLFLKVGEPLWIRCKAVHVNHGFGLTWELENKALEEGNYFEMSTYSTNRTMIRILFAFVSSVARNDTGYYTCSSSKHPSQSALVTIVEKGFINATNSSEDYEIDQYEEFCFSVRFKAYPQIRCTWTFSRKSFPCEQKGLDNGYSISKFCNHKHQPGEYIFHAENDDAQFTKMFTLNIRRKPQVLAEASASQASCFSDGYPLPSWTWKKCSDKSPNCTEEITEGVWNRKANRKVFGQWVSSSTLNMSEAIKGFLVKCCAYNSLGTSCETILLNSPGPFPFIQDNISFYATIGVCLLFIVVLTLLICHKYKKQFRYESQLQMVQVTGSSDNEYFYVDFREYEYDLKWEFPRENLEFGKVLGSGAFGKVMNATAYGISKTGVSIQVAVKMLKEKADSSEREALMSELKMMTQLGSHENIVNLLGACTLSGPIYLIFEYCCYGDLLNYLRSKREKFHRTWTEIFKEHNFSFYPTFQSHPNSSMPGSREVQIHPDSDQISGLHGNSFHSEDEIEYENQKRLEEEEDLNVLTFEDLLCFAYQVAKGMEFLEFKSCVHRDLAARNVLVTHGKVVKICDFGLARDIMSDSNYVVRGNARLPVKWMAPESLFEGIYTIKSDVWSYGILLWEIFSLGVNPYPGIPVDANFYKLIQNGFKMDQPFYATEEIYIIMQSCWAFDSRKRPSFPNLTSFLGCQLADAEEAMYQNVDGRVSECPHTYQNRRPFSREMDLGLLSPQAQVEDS
Method: as §1
as §2, with “Flt3” for “VEGFR3”, “(FITC-AHA-UEAIYAAPFAKKK-CONH2;” for “(FITC-KKKKEEIYFFF-CONH2;”, “350” for “400”, “3” for “0.4”, “Flt3 (BPS Bioscience; San Diego, Calif.;” for “VEGFR3 (Millpore Corp.,”, “40225)” for “14-681)”

[3] = molecular target: T3, VEGFR2 (Homo sapiens, UniProt P35968); test: VEGFR2 enzyme activity assay (Caliper LC3000 mobility shift); details: 160 uM ATP (Km), 1 nM VEGFR2, 90 minutes at RT
T3 construct: purchased BPS Bioscience; San Diego, Calif; 40301
Method: as §1
as §2, with “VEGFR2” for “VEGFR3”, “(5-FL-EEPLYWSFPAKKK-CONH2;” for “(FITC-KKKKEEIYFFF-CONH2;”, “160” for “400”, “1” for “0.4”, “VEGFR2 (BPS Bioscience; San Diego, Calif.;” for “VEGFR3 (Millpore Corp.,”, “40301)” for “14-681)”

T3 sequence (P35968 20-1356): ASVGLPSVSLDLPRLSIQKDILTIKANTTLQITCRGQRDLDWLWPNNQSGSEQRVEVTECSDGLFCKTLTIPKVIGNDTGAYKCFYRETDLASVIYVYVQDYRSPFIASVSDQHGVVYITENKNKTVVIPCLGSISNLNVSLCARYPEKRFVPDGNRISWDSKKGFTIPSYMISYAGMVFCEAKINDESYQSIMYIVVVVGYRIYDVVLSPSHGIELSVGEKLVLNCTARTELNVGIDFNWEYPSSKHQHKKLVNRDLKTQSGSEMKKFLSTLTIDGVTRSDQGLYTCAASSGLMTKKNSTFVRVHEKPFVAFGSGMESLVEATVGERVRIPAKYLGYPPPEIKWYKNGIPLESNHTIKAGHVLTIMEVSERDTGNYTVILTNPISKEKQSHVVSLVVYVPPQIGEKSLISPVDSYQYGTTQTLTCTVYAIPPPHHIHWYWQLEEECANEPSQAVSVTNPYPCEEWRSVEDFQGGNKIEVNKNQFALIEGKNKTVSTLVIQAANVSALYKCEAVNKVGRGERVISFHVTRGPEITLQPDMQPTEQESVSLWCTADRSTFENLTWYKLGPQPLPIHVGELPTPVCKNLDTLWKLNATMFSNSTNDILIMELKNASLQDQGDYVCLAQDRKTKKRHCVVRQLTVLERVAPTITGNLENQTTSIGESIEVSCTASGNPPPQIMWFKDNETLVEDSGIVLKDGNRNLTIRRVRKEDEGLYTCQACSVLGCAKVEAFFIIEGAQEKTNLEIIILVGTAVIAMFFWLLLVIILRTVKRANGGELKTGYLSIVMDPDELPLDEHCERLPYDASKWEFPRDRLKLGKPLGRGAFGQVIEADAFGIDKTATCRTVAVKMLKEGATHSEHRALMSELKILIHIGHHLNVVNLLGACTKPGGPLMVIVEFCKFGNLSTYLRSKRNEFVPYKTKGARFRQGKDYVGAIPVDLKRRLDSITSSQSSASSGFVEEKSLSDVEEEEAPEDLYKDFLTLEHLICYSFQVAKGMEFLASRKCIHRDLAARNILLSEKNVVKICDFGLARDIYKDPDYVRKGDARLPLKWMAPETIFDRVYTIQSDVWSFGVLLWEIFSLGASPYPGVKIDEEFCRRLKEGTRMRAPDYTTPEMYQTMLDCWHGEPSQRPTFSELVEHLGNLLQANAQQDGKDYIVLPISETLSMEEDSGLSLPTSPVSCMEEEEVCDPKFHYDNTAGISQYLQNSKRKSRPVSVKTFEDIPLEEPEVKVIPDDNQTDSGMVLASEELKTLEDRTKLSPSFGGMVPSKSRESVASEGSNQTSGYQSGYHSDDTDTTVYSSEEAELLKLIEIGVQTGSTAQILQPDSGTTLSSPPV
T1 sequence (P35916 25-1363): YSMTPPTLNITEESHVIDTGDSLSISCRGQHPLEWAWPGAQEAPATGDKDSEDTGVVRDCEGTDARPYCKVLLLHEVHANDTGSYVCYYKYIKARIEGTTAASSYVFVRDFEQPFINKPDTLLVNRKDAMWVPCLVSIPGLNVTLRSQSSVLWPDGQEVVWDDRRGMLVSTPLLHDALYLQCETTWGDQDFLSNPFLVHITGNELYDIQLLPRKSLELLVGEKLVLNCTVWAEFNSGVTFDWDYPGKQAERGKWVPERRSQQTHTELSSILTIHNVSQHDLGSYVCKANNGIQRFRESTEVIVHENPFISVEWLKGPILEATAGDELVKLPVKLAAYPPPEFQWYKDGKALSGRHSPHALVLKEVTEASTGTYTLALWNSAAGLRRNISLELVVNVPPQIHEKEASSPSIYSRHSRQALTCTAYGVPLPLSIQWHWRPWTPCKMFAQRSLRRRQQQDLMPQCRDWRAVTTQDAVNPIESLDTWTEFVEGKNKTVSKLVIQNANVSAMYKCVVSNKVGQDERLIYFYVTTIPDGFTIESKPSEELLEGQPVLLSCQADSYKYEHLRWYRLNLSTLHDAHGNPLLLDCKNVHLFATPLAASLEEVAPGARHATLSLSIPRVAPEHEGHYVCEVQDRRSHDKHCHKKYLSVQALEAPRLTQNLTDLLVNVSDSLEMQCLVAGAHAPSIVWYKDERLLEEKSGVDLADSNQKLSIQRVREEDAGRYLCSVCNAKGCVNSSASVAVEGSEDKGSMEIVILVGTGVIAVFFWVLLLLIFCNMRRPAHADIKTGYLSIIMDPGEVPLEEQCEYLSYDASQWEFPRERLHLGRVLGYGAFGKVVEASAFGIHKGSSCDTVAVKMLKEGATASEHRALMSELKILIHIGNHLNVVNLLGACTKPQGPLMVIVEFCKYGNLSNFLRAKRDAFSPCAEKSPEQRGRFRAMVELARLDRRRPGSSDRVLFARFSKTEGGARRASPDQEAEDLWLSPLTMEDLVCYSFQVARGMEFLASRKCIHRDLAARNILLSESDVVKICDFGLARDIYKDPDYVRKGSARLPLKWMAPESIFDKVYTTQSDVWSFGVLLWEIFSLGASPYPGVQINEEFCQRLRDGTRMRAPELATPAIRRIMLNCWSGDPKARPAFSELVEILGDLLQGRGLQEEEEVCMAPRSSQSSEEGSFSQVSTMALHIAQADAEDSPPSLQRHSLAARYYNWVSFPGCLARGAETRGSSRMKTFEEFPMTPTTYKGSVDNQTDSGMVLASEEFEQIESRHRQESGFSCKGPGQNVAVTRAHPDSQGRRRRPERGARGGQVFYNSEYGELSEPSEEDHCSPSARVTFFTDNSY

SMILES: Cn1cncc1C#Cc1ccnc2[nH]ccc12 [compound 66]
- pIC50 [1]: 6.00 to 7.00
- pIC50 [2]: 6.00 to 7.00
- pIC50 [3]: 6.00 to 7.00

SMILES: CC(=O)Nc1ccc(C#Cc2ccnc3[nH]ccc23)cc1 [compound 67]
- pIC50 [1]: 6.00 to 7.00
- pIC50 [2]: < 6.00
- pIC50 [3]: < 6.00

SMILES: Cc1ccnc(C#Cc2ccnc3[nH]ccc23)c1 [compound 68]
- pIC50 [1]: 6.00 to 7.00
- pIC50 [2]: < 6.00
- pIC50 [3]: < 6.00

SMILES: Cc1ccccc1C#Cc1ccnc2[nH]ccc12 [compound 69]
- pIC50 [1]: 6.00 to 7.00
- pIC50 [2]: < 6.00
- pIC50 [3]: < 6.00

SMILES: Cc1ccc(C#Cc2ccnc3[nH]ccc23)cc1 [compound 70]
- pIC50 [1]: 6.00 to 7.00
- pIC50 [2]: < 6.00
- pIC50 [3]: < 6.00

SMILES: Nc1cccc(C#Cc2cnc3[nH]ccc3c2)c1 [compound 71]
- pIC50 [1]: 6.00 to 7.00
- pIC50 [2]: < 6.00
- pIC50 [3]: < 6.00

SMILES: C(#Cc1ccnc2[nH]ccc12)c1ccc2c(c1)OCO2 [compound 72]
- pIC50 [1]: 6.00 to 7.00
- pIC50 [2]: < 6.00
- pIC50 [3]: < 6.00

SMILES: COc1ccc(OC)c(C#Cc2ccnc3[nH]ccc23)c1 [compound 73]
- pIC50 [1]: 6.00 to 7.00
- pIC50 [2]: < 6.00
- pIC50 [3]: < 6.00

SMILES: COc1cc(C#Cc2ccnc3[nH]ccc23)cc(OC)c1 [compound 74]
- pIC50 [1]: < 6.00
- pIC50 [2]: < 6.00
- pIC50 [3]: < 6.00

SMILES: COc1ccc(CNC(=O)Cc2ccccc2C#Cc2ccnc3[nH]ccc23)cc1 [compound 75]
- pIC50 [1]: < 6.00
- pIC50 [2]: < 6.00
- pIC50 [3]: < 6.00

SMILES: Cc1cccc(C#Cc2ccnc3[nH]ccc23)n1 [compound 76]
- pIC50 [1]: < 6.00
- pIC50 [2]: < 6.00
- pIC50 [3]: < 6.00

SMILES: Cc1cc(C)cc(C#Cc2ccnc3[nH]ccc23)c1 [compound 77]
- pIC50 [1]: < 6.00
- pIC50 [2]: < 6.00
- pIC50 [3]: < 6.00

SMILES: FC(F)(F)Oc1ccccc1C#Cc1ccnc2[nH]ccc12 [compound 78]
- pIC50 [1]: < 6.00
- pIC50 [2]: < 6.00
- pIC50 [3]: < 6.00

SMILES: Nc1ccc(C#Cc2cnc3[nH]ccc3c2)cc1 [compound 79]
- pIC50 [1]: < 6.00
- pIC50 [2]: 6.00 to 7.00
- pIC50 [3]: < 6.00

SMILES: Fc1ccc(C#Cc2ccnc3[nH]ccc23)cc1 [compound 80]
- pIC50 [1]: < 6.00
- pIC50 [2]: < 6.00
- pIC50 [3]: < 6.00

SMILES: CS(=O)(=O)c1ccc(C#Cc2ccnc3[nH]ccc23)cc1 [compound 81]
- pIC50 [1]: < 6.00
- pIC50 [2]: < 6.00
- pIC50 [3]: < 6.00

SMILES: C(#Cc1ccnc2[nH]ccc12)c1cccnc1 [compound 82]
- pIC50 [1]: < 6.00
- pIC50 [2]: < 6.00
- pIC50 [3]: < 6.00

SMILES: C(#Cc1ccnc2[nH]ccc12)c1cncnc1 [compound 83]
- pIC50 [1]: < 6.00
- pIC50 [2]: < 6.00
- pIC50 [3]: < 6.00

SMILES: COc1cccnc1C#Cc1ccnc2[nH]ccc12 [compound 84]
- pIC50 [1]: < 6.00
- pIC50 [2]: < 6.00
- pIC50 [3]: < 6.00

SMILES: COc1ccc(C#Cc2ccnc3[nH]ccc23)cc1OC [compound 85]
- pIC50 [1]: < 6.00
- pIC50 [2]: < 6.00
- pIC50 [3]: < 6.00

SMILES: C(#Cc1ccnc2[nH]ccc12)c1ccccn1 [compound 86]
- pIC50 [1]: < 6.00
- pIC50 [2]: < 6.00
- pIC50 [3]: < 6.00

SMILES: C(#Cc1ccnc2[nH]ccc12)c1ccncc1 [compound 87]
- pIC50 [1]: < 6.00
- pIC50 [2]: < 6.00
- pIC50 [3]: < 6.00

SMILES: C(#Cc1ccnc2[nH]ccc12)c1ccc2cc[nH]c2c1 [compound 88]
- pIC50 [1]: < 6.00
- pIC50 [2]: < 6.00
- pIC50 [3]: < 6.00
